Measurements taken from patent US20230068456A1, “REAL-TIME MONITORING OF IN VIVO FREE RADICAL SCAVENGERS THROUGH HYPERPOLARIZED N-ACETYL CYSTEINE ISOTOPES” (THE UNITED STATES OF AMERICA, AS REPRESENTED BY THE …, priority 2020, published 2023).

How the values were obtained:
acylase 1 = biological target: T1, acylase 1 (Homo sapiens, UniProt Q03154); assay: In vitro enzymatic assay of hyperpolarized NAC incubated with acylase 1 (1T NMR); format: biochemical; details: without inhibitor
T1 sequence (Q03154 1-408): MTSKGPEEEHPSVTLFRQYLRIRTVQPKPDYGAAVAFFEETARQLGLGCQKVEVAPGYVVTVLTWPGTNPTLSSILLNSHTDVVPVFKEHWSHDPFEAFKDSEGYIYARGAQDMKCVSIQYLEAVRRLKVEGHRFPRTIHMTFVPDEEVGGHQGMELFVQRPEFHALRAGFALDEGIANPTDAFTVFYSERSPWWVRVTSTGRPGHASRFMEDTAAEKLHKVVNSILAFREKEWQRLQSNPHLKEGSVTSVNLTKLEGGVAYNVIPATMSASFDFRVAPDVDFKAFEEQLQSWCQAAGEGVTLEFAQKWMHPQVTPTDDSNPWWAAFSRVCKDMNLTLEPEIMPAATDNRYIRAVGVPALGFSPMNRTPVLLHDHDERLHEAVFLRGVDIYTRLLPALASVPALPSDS

Hs766t = assay: In cell dynamic 13C NMR of hyperpolarized [1-13C] NAC at 1T, Hs766t cells; format: cell-based, human
From the text: FIG. 2A is a in cell dynamic ^13C NMR spectra of hyperpolarized [1-^13C] NAC at 1T NMR on 20×10^6 cells of human pancreatic tumor cell lines of Hs766t (left) and expanded spectra with 100 times magnifications at 2 seconds after the hyperpolarized [1-^13C] NAC injections in Hs766t (right);
(§1) In an embodiment, a cell dynamic ^13C NMR spectra of hyperpolarized [1-^13C] NAC at 1T NMR spectrometer on human pancreatic ductal adenocarcinoma (PDAC) cell lines, which have one of the worst prognosises among common cancers and need effective diagnostic approaches, Hs766t (FIG. 2A) and SU.86.86 (FIG. 2B), in both cases, the cell dynamic ^13C-nuclear magnetic resonance (NMR) spectra of the hyperpolarized [1-^13C] […]
(§2) All of the animal experiments were conducted in compliance with the Guide for the Care and Use of Laboratory Animal Resources, and experimental protocols were approved by the Animal Care and Use Committee, National Cancer Institute (NCI-CCR-ACUC) (National Research Council, Committee for the Update of the Guide for the Care and Use of Laboratory Animals. Guide for the care and use of laboratory animals. Washington, D.C.: Institute of Laboratory Animal Resources 2011). […] Both respiration (60-90 breaths per min) and temperature (35-37° C.) were maintained at a normal physiological range and monitored continuously during the animal experiment using the adjusted anesthesia.

SU.86.86 = assay: In cell dynamic 13C NMR of hyperpolarized [1-13C] NAC at 1T, SU.86.86 cells; format: cell-based, human
From the text: FIG. 2B is a in cell dynamic ^13C NMR spectra of hyperpolarized [1-^13C] NAC at 1T NMR on 20×10^6 cells of human pancreatic tumor cell lines of SU.86.86 (left) and expanded spectra with 100 times magnifications at 2 seconds after the hyperpolarized [1-^13C] NAC injections in SU.86.86 (right);
as §1, §2

Hs766t tumor xenografts = assay: Dynamic 13C MR spectra and CSI of hyperpolarized [1-13C] NAC at 3T MRI, Hs766t tumor xenografts; format: in vivo, mouse
Experimental: (§3) All of the animal experiments were conducted in compliance with the Guide for the Care and Use of Laboratory Animal Resources, and experimental protocols were approved by the Animal Care and Use Committee, National Cancer Institute (NCI-CCR-ACUC) (National Research Council, Committee for the Update of the Guide for the Care and Use of Laboratory Animals. Guide for the care and use of laboratory animals. Washington, D.C.: Institute of Laboratory Animal Resources 2011). The human pancreatic ductal adenocarcinoma (PDAC) cell lines, […], and SU.86.86 cells, were purchased from Threshold Pharmaceuticals (Redwood City, Calif.). Human pancreatic tumor inoculated mice were generated by subcutaneous injection of 3×10^5 cells into the right hind legs of mice. Detailed conditions for cell culture and xenograft tumor development were as described previously in K. Yamamoto, J. R. Brender, T. Seki, S. Kishimoto, N. Oshima, R. Choudhuri, S. S. Adler, E. M. Jagoda, K. Saito, N. Devasahayam, P. L. Choyke, J. B. Mitchell, and M. C. Krishna, Cancer Res 2020, 80, 2087-2093, which is incorporated herein in its entirety by reference. […] Both respiration (60-90 breaths per min) and temperature (35-37° C.) were maintained at a normal physiological range and monitored continuously during the animal experiment using the adjusted anesthesia. […]

[1] = system: SU.86.86 tumor xenografts; assay: Dynamic 13C MR spectra of hyperpolarized [1-13C] NAC at 3T MRI, SU.86.86 tumor xenografts; format: in vivo; details: SU.86.86 mouse leg xenograft, iv, FIGS. 4B, 4C
Experimental: as §3

[2] = Hyperpolarized 13C chemical shift imaging (CSI) in healthy mouse body and head after iv injection

Structure (SMILES): CC(=O)N[C@@H](CS)[13C](=O)O [[1-^13C] NAC, [1-^13C] N-acetyl cysteine]
- enzymatic conversion by acylase 1 (acylase 1): immediate production of cysteine
- NAC-GSH formation in cell culture (Hs766t; Hs766t, 20×10^6 cells, FIG. 2C): can produce NAC-glutathione (NAC-GSH)
- cell membrane permeation (Hs766t; PDAC cell cultures (Hs766t and SU.86.86), suggested by the rapid kinetics of NAC-GSH formation): may permeabilize through cell membranes without active transport
- NAC-GSH concentrations (SU.86.86; SU.86.86 compared with Hs766t): Lower concentrations NAC-GSH
- NAC-GSH formation in cell culture (SU.86.86; SU.86.86, 20×10^6 cells, FIG. 2C): can produce NAC-glutathione (NAC-GSH)
- amount of NAC-GSH formed (Hs766t tumor xenografts; Hs766t compared with SU.86.86 tumors, FIGS. 4C and 4D): higher in Hs766t than in SU.86.86 tumors
- NAC-GSH formation in tumor (Hs766t tumor xenografts; Hs766t mouse leg xenograft, iv, FIGS. 4A, 4C): rapidly formed
- NAC-GSH formation in tumor [1]: rapidly formed
- time to global distribution throughout the mouse body after injection ([2]; healthy mouse, iv tail vein cannula, 13C CSI): ≤ 30 s
- tissue distribution: lung region signal ([2]; healthy mouse, iv, 13C CSI, FIG. 6A): lower signal
- metabolites in the liver and kidney regions ([2]; normal mice, in vivo, no imposed oxidative stress): not observed
